From PubChem BioAssay (NCI)
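Protocol summary: plate cells (96-well), add compound at 5 concentrations, incubate 48 h, interpolate endpoints linearly. TGI marks complete inhibition of growth.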

Columns and labels:
Experiment in all cases: DTP human tumour cell line panel, 48 h
[1] = tested on: MDA-MB-435
[2] = tested on: KM12 colon
[3] = tested on: COLO 205 colon
[4] = tested on: NCI-H23 lung
[5] = tested on: SF-539 CNS
[6] = tested on: SR leukemia
[7] = tested on: CAKI-1 renal
[8] = tested on: 786-0 renal
[9] = tested on: NCI-H460 lung
[10] = tested on: A498 renal
[11] = tested on: HS 578T breast
[12] = tested on: UACC-257 melanoma
[13] = tested on: SK-OV-3 ovarian
[14] = tested on: OVCAR-4 ovarian
[15] = tested on: RXF 393 renal
[16] = tested on: SK-MEL-28 melanoma
[17] = tested on: MCF7 breast
[18] = tested on: BT-549 breast
[19] = tested on: HCC-2998 colon
[20] = tested on: SF-295 CNS

Row | Compound | TGI [1] | TGI [2] | TGI [3] | TGI [4] | TGI [5] | TGI [6] | TGI [7] | TGI [8] | TGI [9] | TGI [10] | TGI [11] | TGI [12] | TGI [13] | TGI [14] | TGI [15] | TGI [16] | TGI [17] | TGI [18] | TGI [19] | TGI [20]
1 | CCOC(=O)NC(Nc1ccc(F)c(F)c1)(C(=O)OCC)C(F)(F)F (configuration not stated) | > 100 µM | > 100 µM | > 100 µM | > 100 µM | > 100 µM | > 100 µM | > 100 µM | > 100 µM | > 100 µM | > 100 µM | > 100 µM | > 100 µM | > 100 µM | > 100 µM | > 100 µM | > 100 µM | > 100 µM | > 100 µM | > 100 µM | > 100 µM
2 | COc1ccc(C2C3=C(COC3=O)OC(C)(C)Oc3cc4c(cc32)OCO4)cc1 (configuration not stated) | 14.9 µM | > 81 µM | 48.5 µM | > 100 µM | > 72.7 µM | > 100 µM | > 86.9 µM | > 100 µM | > 92.6 µM | 85.2 µM | > 100 µM | > 100 µM | > 100 µM | > 100 µM | 79 µM | > 100 µM | > 100 µM | 89.3 µM | 96.9 µM | > 100 µM
3 | CCN(CC)CCOc1ccc(N2Cc3ccccc3C2=O)cc1 | > 10 µM |  | > 10 µM | > 10 µM | > 10 µM | > 10 µM | > 10 µM | > 10 µM | > 10 µM | > 10 µM | > 10 µM | > 10 µM | > 10 µM | > 10 µM | > 10 µM | > 10 µM | > 10 µM | > 10 µM | > 10 µM | > 10 µM
4 | N#Cc1nc(Sc2cnsn2)c(Sc2cnsn2)nc1C#N | 33.8 µM | 40.4 µM | 19 µM | 46.2 µM | 41.4 µM | > 100 µM | 12.5 µM | 33.6 µM | > 60.9 µM | 43.8 µM | 43 µM | 39 µM | 32.1 µM | 61.1 µM | 12.3 µM | 53.6 µM | > 59.1 µM | 39.2 µM | 33.5 µM | > 58.8 µM
5 | CCCCC1C(=O)N(c2ccc(S(=O)(=O)Nc3ccccn3)cc2)N(c2ccc(O)c(C(=O)O)c2)C1=O (configuration not stated) | > 100 µM | > 100 µM | > 100 µM | > 100 µM | > 100 µM | > 100 µM | > 100 µM | > 100 µM | > 100 µM | > 100 µM | > 100 µM | > 100 µM | > 100 µM | > 100 µM | > 100 µM | > 100 µM | > 100 µM | > 100 µM | > 100 µM | > 100 µM
6 | O=C1N[C@H]2C(=O)c3c(Cl)sc(Cl)c3[C@H]2O1 | 17.8 µM | 44.2 µM | 21.3 µM | 22.5 µM | 20.6 µM | 6.71 µM | 9.7 µM | 31.3 µM | 39.4 µM | 60.5 µM | 67.1 µM | 23 µM | 28.9 µM |  | 9.31 µM | 23.2 µM | 52.5 µM | 54.5 µM | 3.6 µM | 32.1 µM
7 | C/C(=N/NC(=S)N(C)CCc1ccccn1)c1cnccn1 | 35.7 µM | 19.4 µM | 21.8 µM | 13 µM | 28 µM | > 100 µM | 10.5 µM | 6.8 µM | 13 µM | > 100 µM | 53.9 µM | 34.6 µM | 0.947 µM | 5.93 µM | 13.9 µM | 40.3 µM | 30.6 µM | 10.2 µM | 33.8 µM | 4.65 µM
8 | FC(F)(F)c1ccc2c(c1)nc(Cc1ccc(Cl)c(Cl)c1)n2CC1CCCN2CCCCC12 (configuration not stated) | > 100 µM | > 100 µM | 33.5 µM |  | 40 µM | 74.6 µM | > 100 µM | 30.7 µM | 52.4 µM | 67.6 µM | 34.4 µM | 41 µM | 90 µM | > 100 µM | > 100 µM | 53.8 µM | 62.9 µM | 85.2 µM | 22.5 µM | 51.7 µM
9 | N#CC(c1ccccc1)N(CCc1ccccc1)C(=O)c1ccccc1 (configuration not stated) | > 100 µM | > 100 µM | > 100 µM | > 100 µM | > 84.7 µM | > 100 µM | > 100 µM | > 91.4 µM | > 100 µM | > 100 µM | 86.3 µM | > 100 µM | > 100 µM | > 100 µM | > 100 µM | > 100 µM | > 100 µM | > 100 µM | > 100 µM | > 100 µM
10 | CC(=O)c1cccc(Nc2c3ccccc3nc3occc23)c1 | 2.85 µM | 52.6 µM | 29.1 µM | 18.2 µM | 7.63 µM | > 100 µM | 8.82 µM | 27.6 µM | > 100 µM | 74.7 µM | 35.3 µM | 25.5 µM | 36 µM | 6.67 µM | 6.73 µM | 7.97 µM | > 100 µM | 54.3 µM | 25.2 µM | 44 µM
